According to paper PMC5028780, “Receptor and transporter binding and activity profiles of albiflorin extracted from Radix paeoniae Alba” (Scientific Reports, 2016):

Tests used:
[1] = test system: DA levels in the hypothalamus; assay: In vivo microdialysis, extracellular DA; conditions: oral, 3.5, 7.0 and 14.0 mg/kg, rats
Procedure: The effect of albiflorin on extracellular monoamine levels in […] was determined using methods previously described. Microdialysis probes (CMA Microdialysis) with an active membrane surface of 2 mm were perfused with artificial cerebrospinal fluid (125 mM NaCl, 3 mM KCl, 0.75 mM MgSO4 and 1.2 mM CaCl2, pH 7.4) in situ for at least 18 h before experimentation. The microdialysis probe was then implanted via the guide cannula into the hypothalamus and perfused with artificial cerebral spinal fluid at a flow rate of 1 μL/min. A 3-h stabilisation period was allowed after probe implantation, and dialysate sampling was conducted according to previously described methods. […] All subsequent values were expressed as a percentage of the mean preinjection value (i.e., percentage of baseline). […] For a minimum of 3 h after albiflorin administration, dialysis samples were collected every 20 min and analysed to determine the levels of NE, 5-HT and DA. […] A 20-μL sample from the hypothalamus was analysed for 5-HT, NE and DA content using methods described previously. […] External standard curves were used to quantify the amounts of NE, 5-HT and DA in each sample, which was calculated using the area under the curve.
All data for inhibition curves were analysed by nonlinear regression using Prism software (GraphPad Software Inc., San Diego, CA) to determine IC50 values. […]

[2] = biological target: δ (Homo sapiens, UniProt P41143); assay: CNS receptor binding, opioid δ; conditions: CHO cell line, [3H]-dipnorphine(1)
Sequence of δ (P41143 whole entry): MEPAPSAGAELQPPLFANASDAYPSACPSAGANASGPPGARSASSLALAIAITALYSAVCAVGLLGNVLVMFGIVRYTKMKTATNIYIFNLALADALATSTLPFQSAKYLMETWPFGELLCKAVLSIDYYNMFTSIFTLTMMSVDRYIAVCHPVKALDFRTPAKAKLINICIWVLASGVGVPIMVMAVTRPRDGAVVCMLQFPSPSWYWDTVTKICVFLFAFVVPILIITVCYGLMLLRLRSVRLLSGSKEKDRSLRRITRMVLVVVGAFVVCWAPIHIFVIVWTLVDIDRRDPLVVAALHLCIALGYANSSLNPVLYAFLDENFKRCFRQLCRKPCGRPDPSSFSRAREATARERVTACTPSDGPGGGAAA
Procedure: (§1) Albiflorin (10 μM) was tested for numerous other potential binding targets by using standard receptor binding procedures. The tested targets included the following receptors: D1, D2, D3, D4, D5, 5-HT1A, 5-HT1B, 5-HT1D, 5-HT2a, 5-HT2C, 5-HT3, 5-HT5A, 5-HT6, 5-HT7, α1A, α1B, α2A, β1, M1, M2, M3, M4, M5, μ, κ, δ, A1, A2A, H1, H2, H3, H4.

[3] = biological target: T1, hNET (Homo sapiens, UniProt P23975); assay: Human monoamine transporter binding assay, NET
T1 construct: expressed in transfected cells
T1 sequence (P23975 whole entry): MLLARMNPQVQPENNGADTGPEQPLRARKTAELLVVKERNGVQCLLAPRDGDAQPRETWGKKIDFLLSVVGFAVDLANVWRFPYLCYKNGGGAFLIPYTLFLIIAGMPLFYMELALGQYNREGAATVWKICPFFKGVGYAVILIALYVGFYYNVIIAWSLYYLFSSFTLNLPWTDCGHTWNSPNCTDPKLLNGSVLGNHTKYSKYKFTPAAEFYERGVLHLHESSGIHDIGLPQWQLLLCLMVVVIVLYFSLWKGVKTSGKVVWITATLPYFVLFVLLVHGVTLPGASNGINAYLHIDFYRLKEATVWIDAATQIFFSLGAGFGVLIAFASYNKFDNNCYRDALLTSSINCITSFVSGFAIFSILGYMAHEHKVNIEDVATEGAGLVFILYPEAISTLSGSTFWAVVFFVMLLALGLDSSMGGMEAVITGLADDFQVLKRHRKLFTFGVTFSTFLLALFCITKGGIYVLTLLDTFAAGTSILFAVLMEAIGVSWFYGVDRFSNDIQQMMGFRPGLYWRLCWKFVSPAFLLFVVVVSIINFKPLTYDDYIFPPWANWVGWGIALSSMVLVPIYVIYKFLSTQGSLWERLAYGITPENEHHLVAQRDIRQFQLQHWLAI
Procedure: Membranes were prepared from HEK293 cells stably expressing hSERT, hNET, or hDAT as described previously. Briefly, [^3H]-citalopram (1 nM), [^3H]-nisoxetine (2 nM), or [^3H]-WIN35,428 (2 nM) was used to label human 5-HT, NE, or DA transporters, respectively.
(§2) All data for inhibition curves were analysed by nonlinear regression using Prism software (GraphPad Software Inc., San Diego, CA) to determine IC50 values. For the microdialysis experiments, two-way repeated-measures ANOVA followed by Tukey’s test was used to compare the percentage increase over baseline between groups, time and treatment as independent factors, and time as the repeated factor.

[4] = biological target: 5-HT3 (Homo sapiens, UniProt P46098); assay: CNS receptor binding, 5-HT3; conditions: HEK293 cell line
Sequence of 5-HT3 (P46098 24-478): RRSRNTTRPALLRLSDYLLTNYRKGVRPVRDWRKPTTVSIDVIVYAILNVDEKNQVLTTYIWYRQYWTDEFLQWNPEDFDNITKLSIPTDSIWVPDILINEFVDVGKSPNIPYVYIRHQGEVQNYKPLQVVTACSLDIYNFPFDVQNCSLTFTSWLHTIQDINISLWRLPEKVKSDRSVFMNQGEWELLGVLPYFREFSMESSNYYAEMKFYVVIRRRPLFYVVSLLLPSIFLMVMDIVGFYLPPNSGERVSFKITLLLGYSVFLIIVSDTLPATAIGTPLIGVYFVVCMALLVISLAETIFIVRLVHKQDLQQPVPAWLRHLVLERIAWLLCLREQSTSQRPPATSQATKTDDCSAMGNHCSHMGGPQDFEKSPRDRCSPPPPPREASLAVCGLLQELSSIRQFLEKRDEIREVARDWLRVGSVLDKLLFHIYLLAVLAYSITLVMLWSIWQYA
Procedure: as §1

[5] = biological target: T2, rat SERT (Rattus norvegicus, UniProt P31652); assay: Rat monoamine transporter binding assay, SERT; conditions: [3H]-citalopram, Cerebral cortex
T2 construct: from tissue; host or cells: Sprague-Dawley rat cerebral cortex membranes
Procedure: Male Sprague–Dawley rats were killed by cervical dislocation, and their brains were rapidly removed and then dissected on ice. The cerebral cortex, hypothalamus and striatum were homogenised in 4 mL of assay buffer (50 mM Tris–HCl buffer, pH 7.4.) and centrifuged at 40,000× g for 10 min at 4 °C. The pellets were centrifuged twice at 20,000× g and then resuspended in 4 mL of assay buffer. […] Bio-Rad protein assay reagents (1:5 ratio) were used to analyse the protein concentration of the synaptosomal suspension.
as §2

[6] = biological target: 5-HT1D (Homo sapiens, UniProt P28221); assay: CNS receptor binding, 5-HT1D; conditions: HEK293 cell line, [3H]-LSD(10)
Sequence of 5-HT1D (P28221 whole entry): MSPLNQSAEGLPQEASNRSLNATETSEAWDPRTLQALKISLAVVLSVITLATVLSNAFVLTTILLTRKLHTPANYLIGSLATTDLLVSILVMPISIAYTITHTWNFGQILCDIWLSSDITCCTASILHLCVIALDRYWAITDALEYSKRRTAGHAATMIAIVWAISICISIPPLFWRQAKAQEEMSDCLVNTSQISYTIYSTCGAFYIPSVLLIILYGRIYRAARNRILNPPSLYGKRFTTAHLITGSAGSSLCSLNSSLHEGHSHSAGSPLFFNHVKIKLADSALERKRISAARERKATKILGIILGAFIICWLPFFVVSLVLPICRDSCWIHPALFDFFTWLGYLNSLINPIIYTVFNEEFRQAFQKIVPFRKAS
Procedure: as §1

[7] = biological target: H1 (Homo sapiens, UniProt P35367); assay: CNS receptor binding, histamine H1; conditions: CHO cell line, [3H]-pyrilamine(2)
Sequence of H1 (P35367 whole entry): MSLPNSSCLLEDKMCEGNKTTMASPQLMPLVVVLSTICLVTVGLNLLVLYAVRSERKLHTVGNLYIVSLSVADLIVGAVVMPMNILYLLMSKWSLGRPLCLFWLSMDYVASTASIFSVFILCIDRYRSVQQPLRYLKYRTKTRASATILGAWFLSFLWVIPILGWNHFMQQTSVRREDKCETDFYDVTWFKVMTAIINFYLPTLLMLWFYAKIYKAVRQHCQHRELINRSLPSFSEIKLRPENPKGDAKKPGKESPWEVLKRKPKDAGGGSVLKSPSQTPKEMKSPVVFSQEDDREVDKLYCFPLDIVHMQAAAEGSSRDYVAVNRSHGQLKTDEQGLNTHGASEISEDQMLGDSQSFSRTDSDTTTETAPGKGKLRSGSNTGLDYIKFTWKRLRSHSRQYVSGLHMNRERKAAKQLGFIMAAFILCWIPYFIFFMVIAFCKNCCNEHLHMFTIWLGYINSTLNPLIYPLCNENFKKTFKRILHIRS
Procedure: as §1

[8] = biological target: κ (Homo sapiens, UniProt P41145); assay: CNS receptor binding, opioid κ; conditions: CHO cell line, [3H]-dipnorphine(1)
Sequence of κ (P41145 whole entry): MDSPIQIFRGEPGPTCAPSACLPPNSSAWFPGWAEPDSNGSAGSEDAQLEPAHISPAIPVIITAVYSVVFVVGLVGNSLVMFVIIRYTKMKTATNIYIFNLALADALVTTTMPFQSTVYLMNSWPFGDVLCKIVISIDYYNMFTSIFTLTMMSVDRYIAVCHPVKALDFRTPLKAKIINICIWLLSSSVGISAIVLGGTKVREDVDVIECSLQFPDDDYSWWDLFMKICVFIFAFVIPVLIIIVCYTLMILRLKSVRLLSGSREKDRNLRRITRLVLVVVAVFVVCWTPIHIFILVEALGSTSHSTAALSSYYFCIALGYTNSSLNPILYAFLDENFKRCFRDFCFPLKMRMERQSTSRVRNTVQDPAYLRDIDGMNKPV
Procedure: as §1

[9] = biological target: α1B (Homo sapiens, UniProt P35368); assay: CNS receptor binding, NE receptor α1B; conditions: HEK293 cell line, [3H]-parzosin(1)
Sequence of α1B (P35368 whole entry): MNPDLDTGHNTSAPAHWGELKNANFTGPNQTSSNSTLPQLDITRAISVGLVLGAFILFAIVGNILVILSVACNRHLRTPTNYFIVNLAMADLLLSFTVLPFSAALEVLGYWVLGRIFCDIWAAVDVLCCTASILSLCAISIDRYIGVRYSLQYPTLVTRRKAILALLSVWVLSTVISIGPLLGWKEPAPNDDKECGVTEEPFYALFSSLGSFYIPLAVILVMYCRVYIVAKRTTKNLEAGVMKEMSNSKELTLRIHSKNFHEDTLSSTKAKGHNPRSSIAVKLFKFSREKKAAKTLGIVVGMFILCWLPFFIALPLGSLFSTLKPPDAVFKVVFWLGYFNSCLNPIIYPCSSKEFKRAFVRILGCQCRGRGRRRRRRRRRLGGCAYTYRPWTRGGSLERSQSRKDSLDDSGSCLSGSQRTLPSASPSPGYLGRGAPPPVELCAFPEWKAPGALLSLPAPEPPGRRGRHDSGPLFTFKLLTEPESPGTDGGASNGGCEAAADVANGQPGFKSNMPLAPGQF
Procedure: as §1

[10] = biological target: β1 (Homo sapiens, UniProt P08588); assay: CNS receptor binding, NE receptor β1; conditions: HEK293 cell line, [3H]-DHA(1)
Sequence of β1 (P08588 whole entry): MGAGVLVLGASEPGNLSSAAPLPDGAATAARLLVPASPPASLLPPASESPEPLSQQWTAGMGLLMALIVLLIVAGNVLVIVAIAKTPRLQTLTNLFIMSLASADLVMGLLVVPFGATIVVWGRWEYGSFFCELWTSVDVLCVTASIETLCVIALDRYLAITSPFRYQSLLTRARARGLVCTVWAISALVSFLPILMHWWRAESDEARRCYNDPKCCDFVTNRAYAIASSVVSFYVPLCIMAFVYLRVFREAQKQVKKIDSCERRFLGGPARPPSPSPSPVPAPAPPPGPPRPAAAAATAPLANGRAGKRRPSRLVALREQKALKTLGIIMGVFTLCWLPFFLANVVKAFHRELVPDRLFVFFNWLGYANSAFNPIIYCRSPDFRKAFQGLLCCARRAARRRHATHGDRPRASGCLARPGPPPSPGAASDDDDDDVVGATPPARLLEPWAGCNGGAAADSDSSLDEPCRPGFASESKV
Procedure: as §1

[11] = biological target: T3, D4 (Homo sapiens, UniProt P21917); assay: CNS receptor binding, dopamine D4; conditions: HEK293 cell line, [3H]-spiperone(1)
T3 construct: expressed in transfected cells; host or cells: HEK293 cell line
T3 sequence (P21917 whole entry): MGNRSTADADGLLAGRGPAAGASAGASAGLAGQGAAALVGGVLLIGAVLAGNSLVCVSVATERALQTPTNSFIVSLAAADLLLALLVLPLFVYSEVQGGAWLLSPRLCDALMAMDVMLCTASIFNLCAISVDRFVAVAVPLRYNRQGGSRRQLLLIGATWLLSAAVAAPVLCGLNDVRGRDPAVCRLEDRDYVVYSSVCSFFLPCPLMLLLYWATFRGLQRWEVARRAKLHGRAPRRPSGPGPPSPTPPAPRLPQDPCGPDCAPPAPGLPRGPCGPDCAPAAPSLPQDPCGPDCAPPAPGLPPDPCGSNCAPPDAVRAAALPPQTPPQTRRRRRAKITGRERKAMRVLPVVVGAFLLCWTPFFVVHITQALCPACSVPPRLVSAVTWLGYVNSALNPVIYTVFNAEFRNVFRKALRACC
Procedure: as §1

[12] = biological target: α2A (Rattus norvegicus, UniProt P22909); assay: CNS receptor binding, NE receptor α2A; conditions: Rat Cortex, [3H]-clonidine(2)
Sequence of α2A (P22909 whole entry): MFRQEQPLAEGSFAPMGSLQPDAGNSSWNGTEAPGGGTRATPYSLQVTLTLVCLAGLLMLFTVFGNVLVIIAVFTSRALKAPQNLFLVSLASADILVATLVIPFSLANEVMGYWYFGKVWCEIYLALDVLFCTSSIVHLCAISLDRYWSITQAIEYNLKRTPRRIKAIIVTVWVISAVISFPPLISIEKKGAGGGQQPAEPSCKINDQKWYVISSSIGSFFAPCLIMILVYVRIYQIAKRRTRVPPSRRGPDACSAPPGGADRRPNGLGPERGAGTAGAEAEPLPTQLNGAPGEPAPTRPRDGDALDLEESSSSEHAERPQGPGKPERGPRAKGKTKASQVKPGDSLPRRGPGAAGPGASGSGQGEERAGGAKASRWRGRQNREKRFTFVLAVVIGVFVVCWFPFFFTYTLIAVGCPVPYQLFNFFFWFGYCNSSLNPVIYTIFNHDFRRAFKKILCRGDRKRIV
Procedure: as §1

[13] = biological target: T4, D2 (Homo sapiens, UniProt P14416); assay: CNS receptor binding, dopamine D2; conditions: HEK293 cell line, [3H]-spiperone(1)
T4 construct: expressed in transfected cells; host or cells: HEK293 cell line
Procedure: as §1

[14] = biological target: 5-HT2a (Homo sapiens, UniProt P28223); assay: CNS receptor binding, 5-HT2a; conditions: HEK293 cell line, [3H]-ketanserin(1)
Procedure: as §1

[15] = read-out: IC50 values for albiflorin

With `C[C@]12C[C@@H](O)[C@@H]3C[C@@]1(O[C@@H]1O[C@H](CO)[C@@H](O)[C@H](O)[C@H]1O)[C@@]3(COC(=O)c1ccccc1)C(=O)O2` [albiflorin, Albiflorin] the “effect on DA levels in the hypothalamus” value [1] was “not elevated”, the “% Inhibition of binding at 10 μM albiflorin” value (“% Inhibition of binding” for short) [2] was 66.33% and the IC50 [2, 15] was 3.66 ± 0.201 µM. For the same compound, the Ki ([3]; Human, [3H]-nisoxetine, HEK293 cell line) was 0.00123 ± 7e-05 µM, the “affinity relative to desipramine in hNET binding assay” value ([3]; albiflorin vs desipramine) was 4 fold and the “% Inhibition of binding” value ([4]; [3H]-BRL3694) was 17.38%. The IC50 ([4]; [3H]-BRL3694, read-out: IC50 values for albiflorin) was greater than 10 µM, the Ki [5] was 0.00525 ± 0.00017 µM and the “% Inhibition of binding” value [6] was 22.36%. The IC50 [6, 15] was greater than 10 µM, the “% Inhibition of binding” value [7] was 6.33% and the IC50 [7, 15] was greater than 10 µM. For the same compound, the “% Inhibition of binding” value [8] was 32.33%, the IC50 [8, 15] was greater than 10 µM and the “% Inhibition of binding” value [9] was 12.33%. The IC50 [9, 15] was greater than 10 µM, the “% Inhibition of binding” value [10] was 63.22% and the IC50 [10, 15] was 3.35 ± 0.212 µM. The “% Inhibition of binding” value [11] was 19.50%, the IC50 [11, 15] was greater than 10 µM and the “% Inhibition of binding” value [12] was 36.66%. For the same compound, the IC50 [12, 15] was greater than 10 µM, the “% Inhibition of binding” value [13] was 12.50% and the IC50 [13, 15] was greater than 10 µM. The “% Inhibition of binding” value [14] was 55.36% and the IC50 [14, 15] was 4 ± 0.113 µM.
